# Assay results as given in patent US8771944B2, “Use of micro-RNA as a biomarker of immunomodulatory drug activity” (Celgene Corporation, priority 2007, dated 2014).
# Tests used:
# [1] = tested on: CD34+ hematopoietic precursor cells; assay: miRNA differential expression profiling (Ambion Bioarrays) in CD34+ cells; format: cell-based; conditions: CD34+ hematopoietic precursor model
# Source text: A CD34^+ hematopoietic precursor cell line was utilized to examine miRNA biomarker expression upon treatment with an immunomodulatory compound. CD34^+ cells used in preclinical studies were purchased from a commercial supplier (Lonza), isolated by positive immunomagnetic selection from bone marrow. In clinical studies, CD34^+ cells can be purified by positive immunomagnetic selection or by flow cytometric immunosorting from bone marrow or peripheral blood using conventional methodologies.
# CD34^+ cells were expanded for 6 days in Iscove's DMEM media (Invitrogen) with 20% BIT serum substitute (StemCell Technologies) in the presence of SCF (100 ng/ml), Flt-3 ligand (100 ng/ml), and IL-3 (20 ng/ml) and then differentiated for 6 days in Iscove's/20% BIT containing SCF (50 ng/ml) and erythropoietin (2 U/ml) in the presence of 0.1% DMSO, 1 or 10 uM the immunomodulatory compound. Cells were grown in tissue culture and treated with the immunomodulatory compound according to methods known in the art. […]
# The expression array method detected two miRNAs that were regulated by administration of immunomodulatory agents in the CD34^+ hematopoietic precursor model.
# [2] = tested on: CD34+ cells; assay: qRT-PCR of miR-130a and miR-146b in CD34+ cell cultures; format: cell-based; conditions: 6 days, 1 or 10 μm
# Method: CD34^+ cells were expanded for 6 days in Iscove's DMEM media (Invitrogen) with 20% BIT serum substitute (StemCell Technologies) in the presence of SCF (100 ng/ml), Flt-3 ligand (100 ng/ml), and IL-3 (20 ng/ml) and then differentiated for 6 days in Iscove's/20% BIT containing SCF (50 ng/ml) and erythropoietin (2 U/ml) in the presence of 0.1% DMSO, 1 or 10 uM the immunomodulatory compound. Cells were grown in tissue culture and treated with the immunomodulatory compound according to methods known in the art.
# To quantitate selected miRNAs with qRT-PCR, purified miRNA was analyzed using a TaqmanR microRNA Assay (Applied Biosystems). Five ng of purified miRNA was subjected to qRT-PCR with TaqmanR miRNA assay according to manufacturers instructions. Alternatively, the procedure may be achieved by using miRNA-specific reverse transcription and PCR primers with standard buffers, reagents, and methods.
# Levels of miR-130a and miR-146b were determined using qRT-PCR as described above.
# [3] = tested on: Namalwa cells; assay: miRNA expression profile / qRT-PCR of miR-143 and miR-145 in Namalwa cells; format: cell-based; conditions: 10 μM, 6 or 24 hours, FIG. 2
# Method: An experiment similar to described above in Sections 6.1-6.5 was performed with a Namalwa lymphoma cell line model. The Namalwa Burkitt's lymphoma cell line was purchased from ATCC and grown in RPMI with 10% fetal bovine serum according to standard tissue culture methods known in the art.
# Namalwa cells grown as above were treated for 6 or 24 hours with either 0.1% DMSO, 10 μM 1,3-dioxo-2-(2,6-dioxopiperidin-3-yl)-4-aminoisoindoline, or the HDAC inhibitor TSA 1 μM. Cells were harvested at indicated times and then miRNA was purified as outlined in previous sections.
# miRNA expression profiles in Namalwa cells treated with immunomodulatory compounds were generated using methods similar to that described in Section 6.3.
# Levels of miR-145 and miR-143 were determined using qRT-PCR. Purified miRNA was analyzed using a TaqmanR microRNA expression assay (Applied Biosystems). Five ng of purified miRNA was subjected to qRT-PCR with TaqmanR miRNA assays for miR-143 and miR-145 according to manufacturers instructions. The procedure may be achieved by using miRNA reverse transcription and PCR primers with standard buffers, reagents, and methods.
# [4] = cited from earlier work
# [5] = tested on: H929 cells; assay: Agilent miRNA array v2, lenalidomide-treated H929 cells; format: cell-based, human; conditions: for miR-204 Fold Increase / miR-424 Fold Increase / miR-503 Fold Increase: H929 cells
# Method: (§1) Additional assays were performed to determine the effects of lenalidomide (1-oxo-2-(2,6-dioxopiperidin-3-yl)-4-aminoisoindoline) administration to various cell cultures on the expression of miRNAs. The miRNAs were detected using the Agilent miRNA array v2, which contains probes for 760 human miRNAs. […] was isolated using the Qiagen miRNeasy kit, total RNA (100 ng) was dephosphorylated and ligated with pCp-Cy3. Labeled RNA was purified and hybridized to Agilent miRNA arrays.
# [6] = tested on: Namalwa cells; assay: Agilent miRNA array v2, lenalidomide-treated Namalwa cells; format: cell-based, human; conditions: for miR-143 Fold Increase / miR-145 Fold Increase: Namalwa cells
# Method: as §1
# Namalwa cells: Lenalidomide was added to Namalwa cells at a concentration of 0.1 μm, 1 μm, or 10 μm. The miRNA levels were measured at 24 and 48 hours after addition of the lenalidomide. The results with this array confirmed the upregulation of miR-143 and miR-145 in Namalwa cells in a dose-dependent response to administration of 1-oxo-2-(2,6-dioxopiperidin-3-yl)-4-aminoisoindoline (Table 2).
# [7] = tested on: HL60 cells; assay: Agilent miRNA array v2, lenalidomide-treated HL60 cells; format: cell-based, human; conditions: for miR-99b Fold Increase / miR-125a Fold Increase / miR-143 Fold Increase / miR-145 Fold Increase / miR-146b Fold Increase: HL-60 cells
# Method: as §1
# HL60 cells: The addition of lenalidomide (1-oxo-2-(2,6-dioxopiperidin-3-yl)-4-aminoisoindoline) to a cell culture from an acute myelogenous leukemia (AML) cell line (HL60) was also shown to upregulate a number of miRNAs.
# [8] = 24 hour treatment, Lenalidomide 0.1 uM
# [9] = 24 hour treatment, Lenalidomide 1.0 uM
# [10] = 24 hour treatment, Lenalidomide 10.0 uM
# [11] = 48 hour treatment, Lenalidomide 0.1 uM
# [12] = 48 hour treatment, Lenalidomide 1.0 uM
# [13] = 48 hour treatment, Lenalidomide 10.0 uM
# [14] = H929 multiple myeloma cell line, 24 and 48 hours
# [15] = Namalwa cells, 0.1, 1 or 10 μm, 24 and 48 hours, dose-dependent response
# [16] = 24 hour treatment, 0.1 uM lenalidomide
# [17] = 24 hour treatment, 1 uM lenalidomide
# [18] = 24 hour treatment, 10 uM lenalidomide
# [19] = 48 hour treatment, 0.1 uM lenalidomide
# [20] = 48 hour treatment, 1 uM lenalidomide
# [21] = HL60 acute myelogenous leukemia cell line
# [22] = HL60 cells, dose dependent manner at both 24 and 48 hours
compound,measurement,setting,value
"Nc1cccc2c1C(=O)N(C1CCC(=O)NC1=O)C2=O (stereo not drawn) [1,3-dioxo-2-(2,6-dioxopiperidin-3-yl)-4-aminoisoindoline]",miR-130a expression change (expression array),[1],upregulated
same,miR-146b expression change (expression array),[1],upregulated
same,miR-146b expression (qRT-PCR) compared to DMSO control,[2]; FIG. 1A,upregulation
same,miR-130a expression (qRT-PCR) compared to DMSO control,[2]; FIG. 1B,upregulation
same,miR-143 expression change,[3],upregulation
same,miR-145 expression change,[3],upregulation
"Nc1cccc2c1CN(C1CCC(=O)NC1=O)C2=O (stereo not drawn) [Form E, 3-(4-amino-1-oxo-1,3 dihydro-isoindol-2-yl)-piperidene-2,6-dione]",stability of polymorphic form in aqueous solvent systems,[4],most stable form
"Nc1cccc2c1CN(C1CCC(=O)NC1=O)C2=O (stereo not drawn) [lenalidomide, 1-oxo-2-(2,6-dioxopiperidin-3-yl)-4-aminoisoindoline]",miR-204 Fold Increase,[5]; [8],1.75 fold
same,miR-424 Fold Increase,[5]; [8],1.50 fold
same,miR-503 Fold Increase,[5]; [8],1.61 fold
same,miR-204 Fold Increase,[5]; [9],2.20 fold
same,miR-424 Fold Increase,[5]; [9],2.08 fold
same,miR-503 Fold Increase,[5]; [9],2.37 fold
same,miR-204 Fold Increase,[5]; [10],2.00 fold
same,miR-424 Fold Increase,[5]; [10],2.10 fold
same,miR-503 Fold Increase,[5]; [10],2.44 fold
same,miR-204 Fold Increase,[5]; [11],2.61 fold
same,miR-424 Fold Increase,[5]; [11],1.71 fold
same,miR-503 Fold Increase,[5]; [11],1.89 fold
same,miR-204 Fold Increase,[5]; [12],4.30 fold
same,miR-424 Fold Increase,[5]; [12],3.08 fold
same,miR-503 Fold Increase,[5]; [12],3.80 fold
same,miR-204 Fold Increase,[5]; [13],4.45 fold
same,miR-424 Fold Increase,[5]; [13],3.36 fold
same,miR-503 Fold Increase,[5]; [13],4.05 fold
same,miR-204 expression change,[5]; [14],increase in expression in a dose dependent manner
same,miR-424 expression change,[5]; [14],increase in expression in a dose dependent manner
same,miR-503 expression change,[5]; [14],increase in expression in a dose dependent manner
same,miR-143 expression change,[6]; [15],upregulation
same,miR-145 expression change,[6]; [15],upregulation
same,miR-143 Fold Increase,[6]; [16],2.29 fold
same,miR-145 Fold Increase,[6]; [16],2.34 fold
same,miR-143 Fold Increase,[6]; [17],3.81 fold
same,miR-145 Fold Increase,[6]; [17],4.16 fold
same,miR-143 Fold Increase,[6]; [18],4.69 fold
same,miR-145 Fold Increase,[6]; [18],4.96 fold
same,miR-143 Fold Increase,[6]; [19],2.31 fold
same,miR-145 Fold Increase,[6]; [19],2.53 fold
same,miR-143 Fold Increase,[6]; [20],4.68 fold
same,miR-145 Fold Increase,[6]; [20],5.12 fold
same,miR-143 expression change,[7]; [21],upregulated
same,miR-145 expression change,[7]; [21],upregulated
same,miR-99b expression change,[7]; [22],upregulated
same,miR-125a expression change,[7]; [22],upregulated
same,miR-146b expression change,[7]; [22],upregulated
same,miR-99b Fold Increase,[7]; [8],1.81 fold
same,miR-125a Fold Increase,[7]; [8],1.56 fold
same,miR-143 Fold Increase,[7]; [8],1.42 fold
same,miR-145 Fold Increase,[7]; [8],1.33 fold
same,miR-146b Fold Increase,[7]; [8],2.28 fold
same,miR-99b Fold Increase,[7]; [9],2.37 fold
same,miR-125a Fold Increase,[7]; [9],1.93 fold
same,miR-143 Fold Increase,[7]; [9],1.56 fold
same,miR-145 Fold Increase,[7]; [9],1.62 fold
same,miR-146b Fold Increase,[7]; [9],2.99 fold
same,miR-99b Fold Increase,[7]; [10],2.53 fold
same,miR-125a Fold Increase,[7]; [10],2.04 fold
same,miR-143 Fold Increase,[7]; [10],1.63 fold
same,miR-145 Fold Increase,[7]; [10],1.77 fold
same,miR-146b Fold Increase,[7]; [10],3.29 fold
same,miR-99b Fold Increase,[7]; [11],1.99 fold
same,miR-125a Fold Increase,[7]; [11],1.72 fold
same,miR-143 Fold Increase,[7]; [11],1.96 fold
same,miR-145 Fold Increase,[7]; [11],1.89 fold
same,miR-146b Fold Increase,[7]; [11],4.38 fold
same,miR-99b Fold Increase,[7]; [12],2.45 fold
same,miR-125a Fold Increase,[7]; [12],2.05 fold
same,miR-143 Fold Increase,[7]; [12],2.40 fold
same,miR-145 Fold Increase,[7]; [12],2.27 fold
same,miR-146b Fold Increase,[7]; [12],7.16 fold
same,miR-99b Fold Increase,[7]; [13],2.69 fold
same,miR-125a Fold Increase,[7]; [13],2.24 fold
same,miR-143 Fold Increase,[7]; [13],2.25 fold
same,miR-145 Fold Increase,[7]; [13],2.34 fold
same,miR-146b Fold Increase,[7]; [13],7.07 fold
